Laboratory results published in US7052850B2, “Isolated human EDG-4 receptor” (priority 1997, dated 2006).
Entries after “also recorded” stand apart in the source; their conditions may differ.

Tests used:
HL-60 cells = assay: IL-8 response in HL-60 cells; type: cell-based, human; settings: 1, 6 or 24 hours, S1P or LPA up to 3 μM, TNF-α 10 ng/ml
[1] = system: pcDNA3-transfected 293-EBNA cells; assay: NF-κB luciferase reporter in 293-EBNA cells, empty vector pcDNA3; type: cell-based; settings: empty vector control; S1P, SPC 1-10 μM, LPA 10 μM, 20% FBS
Method: • 1) 150 mm plates of 293-EBNA obtained from Invitrogen (Cat. R620-07) with a confluency of 18 80% were used for transfection. • 2) 6.6 μg NF-κB-tk-p4Luc reporter DNA and 6.6 μg of pC3-redg4 (expressing rat EDG-4), or pcDNA3 DNA was diluted in 500 μl OPTI-MEM (Gibco; Cat. 31985-062) • 3) 96.8 μl Lipofectamine (Gibco; Cat. 18324-020) was diluted in 500 μl of OPTI-MEM. • 4) The 2 solutions were mixed gently and the tube was incubated for 30 min at room temperature. • 5) The 293-EBNA plates were washed once with PBS and 13 ml OPTI-MEM was added to each plate, • 6) 6 ml OPTI-UMM was added to each transfection tube and this was added to a plate of 293EBNA cells. The plates were left for 4 hrs at 37° C. in a 5% CO2 incubator. • 7) After 4 his, the media was removed and replaced with frest 10% FBS media. Day 2: • 1) Transfected cells were washed, typsinized with 1× tryspin, resuspended in 10 ml media and counted. • 2) 0.02×10 ^6 cells were plated per well of a 96-well Blackview plate coated with polyD-lysine. No cells were plated in the outside wells of the 96-well plate. Two 96-well plates were seeded for each transfection. Day 3: • 1) Cells were washed with PBS and 140 μl serum-free media (SFM) added to each well. Plates were incubated in 37° C. incubator for 6 hrs. • 2) After 6 hrs, media was removed and cells treated with compounds diluted in 0.5% FBS media (140 μl added to each well). The Following Treatments Were Used: pcDNA3:
Day 4 Luciferase Assay • 1) Luclite kit (Packard; Cat. 6016911) was used for luciferase assay. All reagents were brought to room temperature before use. • 2) Supernatant was transferred to a new 96-well plate and stored at −20 C. for […] IL-8 measurement. • 3) 50 μl 0.5 M HEPES pH 7.8 buffer (1 mM MgCl21 mM CaCl2) was addeded to all wells of 96-well plate. […] A stop plate was placed on top of the blackview plate to keep it in the dark. • 6) Plates were incubated at room temperature for 30 min. • 7) After incubation, plates were counted in a 12 detector Packard Top Count on a program without dark delay. […]

human EDG-3 [2] = target: human EDG-3 (Homo sapiens, UniProt Q99500); assay: SRE luciferase reporter in 293-EBNA cells, human EDG-3; type: cell-based; settings: Assay 3; pancreas clone pC3-E3HP2; 3 μM
Method: The protocol described in Example 11 for Assay 1 was allowed except for the following changes: • 1) 100 mm plates of 293-EBNA ith a confluency of ˜80% were used for transfection, • 2) SRE Cotransfection: 0.5 μg of 2XSREtk-p4Luc-zeo reporter DNA and 3.5 μg pcDNA3, EDG-1, EDG-3 pC3-hE3P2, different from the clone used in Assay 2 of Example 11) or the newly cloned human EDG-4 (pC3-hedg4#36); NF-κB Cotransfection: 2 μg 6XNFκBtk-p4LUc-zeo reporter DNA and 2.0 μg pcDNA3, EDG-1, EDG-3 (pC3-hE3HP2), or EDG-4 (pC3-hedg4#36). Expression plasmid and reporter plasmid DNA samples were combined and diluted in 750 μl of DMEM/F12 (serum free media) and 20 μl Plus Reagent (Lipofectamine Plus Kit, Life Technologies Cat. 109640-13), and incubated at room temperature for 15 min. • 3) 30 μl Lipofectamine Reagent (Lipofectamine Plus Kit) was diluted in 750 μl DMEM/F12. The diluted Lipofectamine was then combined with the DNA/Plus mixture and incubated at room temperature for 15 min. • 4) The 293-EBNA plates were washed once with PBS and 5 ml DMEM/F12 was added to each plate. • 5) DNA/Plus/Lipofectamine mixture was added to each plate of 293-EBNA cells. […]

human EDG-3 [3] = assay: NF-κB luciferase reporter in 293-EBNA cells, human EDG-3; type: cell-based; settings: for NF-κB response: original human EDG-3 clone (Assay 2)
Method: The above protocol for assay 1 was followed except for the following changes: • 1) 100 mm plates of 293-EBNA with a confluency of ˜80% were used for transfection. • 2) 3 μg NFκB-tk-p4Luc reporter DNA and 3 μg pC3-hedg1, pC3-hedg 3, pC3-redg4, pC3-hedg5 or pcDNA3 DNA was diluted in 240 μl OPTI-MEM (Gibco; Cat. 31985-062) • 3) 22 μl lipofectamine (Gibco; Cat. 1 8324-020) was diluted in 240 μl OPTI-MEM. • 4) The 293-EBNA plates were washed once with PBS and 7 ml OPTI-MEM was added to each plate. • 5) DNA/lipofectamine mixture was added to each plate of 293-EBNA cells. The plates were left for 4 hrs at 37° C. in a 5% CO2 incubator. Day 2: • 1) 0.01×10^6 cells were plated per well of 96-well Blackview plate coated with polyD-lysine. No cells were plated in the outside wells of the 96-well plate. Day 3: The following treatments were used for all transections:
Expression plasmid and reporter plasmid DNA samples were combined and diluted in 750 μl of DMEM/F12 (serum free media) and 20 μl Plus Reagent (Lipofectamine Plus Kit, Life Technologies Cat. 109640-13), and incubated at room temperature for 15 min. • 3) 30 μl Lipofectamine Reagent (Lipofectamine Plus Kit) was diluted in 750 μl DMEM/F12. The diluted Lipofectamine was then combined with the DNA/Plus mixture and incubated at room temperature for 15 min. • 4) The 293-EBNA plates were washed once with PBS and 5 ml DMEM/F12 was added to each plate. • 5) DNA/Plus/Lipofectamine mixture was added to each plate of 293-EBNA cells. The plates were left for 3 hr at 37° C. in a 5% CO2 incubator. • 6) The transfection medium was replaced with serum-free DMEM/F12 for cells transfected with 2XSREtk-p4Luc-zeo reporter DNA and with DMEM/F12 plus 10% FBS for cells transfected with 6XNFκBtk-p4Luc-zeo reporter DNA. • Day 2. • 2) Transfected cells were harvested by trypsinization and 50,000 cells per well were plated in 96-well Blackview plates coated with poly D-lysine Becton Dickinson Labware, Cat. 40640). […]

human EDG-4 = target: T1, human EDG-4 (Homo sapiens, UniProt O95136, F273L/I205V); assay: Relative potency and efficacy of agonists, luciferase (SRE) reporter in 293-EBNA cells expressing recombinant human EDG-4; type: cell-based; settings: for Rank (EMax): rank of efficacy
T1 construct: a 1059 bp open reading frame (excluding the stop codon) corresponding to the complete human edg-4 coding region; expressed in transfected cells; host or cells: 293-EBNA
Method: Transfection of EDG-4, expression, pretreatment and treatment of 293-EBNA cells expressing recombinant human EDG-4 was carried out essentially as described in “Example 11. […] Results were tabulated in Microsoft Excel, and analyzed with GraphPad Prism sotfware. […] The luciferase response was expressed as fold response, after subtracting any endogenous response in pcDNA3-transfected cells at a given concentration of compound.

rat EDG-4 = rat EDG-4 (Rattus norvegicus, UniProt P47752); assay: NF-κB-tk-p4Luc luciferase reporter in 293-EBNA cells, rat EDG-4; type: cell-based; parameters: transient transfection with a eukaryotic expression vector expressing full-length rat edg-4 cDNA; expressed in transfected cells; host or cells: 293-EBNA
Chain of rat EDG-4 (P47752 whole entry): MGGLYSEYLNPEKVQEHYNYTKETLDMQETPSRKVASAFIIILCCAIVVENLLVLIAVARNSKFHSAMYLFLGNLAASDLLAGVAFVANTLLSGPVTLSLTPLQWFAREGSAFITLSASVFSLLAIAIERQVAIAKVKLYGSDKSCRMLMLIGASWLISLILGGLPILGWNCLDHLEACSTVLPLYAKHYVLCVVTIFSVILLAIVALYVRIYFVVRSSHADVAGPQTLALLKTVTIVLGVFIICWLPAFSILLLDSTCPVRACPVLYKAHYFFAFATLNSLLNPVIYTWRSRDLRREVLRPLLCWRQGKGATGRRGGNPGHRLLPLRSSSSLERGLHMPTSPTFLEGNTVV
From the text: First, the NF-κB response element was reconstructed in a new reporter construct (p4Luc) suitable for stable maintenance as an episome in primate cells. […] The p4-Luc reporter used the backbone of pREP4 (Invitrogen; Cat. V004-50), which contains the EBV orgin of replicaiton (EBVoni), as well as the EBNA-1 viral antigen required to maintain EBVoti containing plasmids as stable episoms in primate cells, and a prokayotic selection marker. A dominant eukaryotic selection marker for zeocin resistance was substituted for expression in pREP4. The promoter of pREP4 was then excised and replaced with a multi-cloning site for introduction of promoter/enhancer inserts. The NF-κB inser of the previous CAT reporter was subcloned into this site and all cloning junctions were sequenced to verify the structure of the plasmid, called NF-κB-tk-p4Luc.
Day 4 Luciferase Assay • 1) Luclite kit (Packard; Cat. 6016911) was used for luciferase assay. All reagents were brought to room temperature before use. • 2) Supernatant was transferred to a new 96-well plate and stored at −20 C. for rupture IL-8 measurement. • 3) 50 μl 0.5 M HEPES pH 7.8 buffer (1 mM MgCl21 mM CaCl2) was addeded to all wells of 96-well plate. Black adhesive backing (polyfitronics) was aligned to the bottom of the viewplate. • 4) Luclite substrate was made up by adding 10 ml substate diluent to 1 vial lyophilized substrate. Reconstituted substrate was kept under a dark container. 50 μl substrate was added to each well. • 5) A clear adhesive plate sealer was adjusted on to the viewplate and sealer rubbed over the plate with a Kimwipe. The plate was shaken on a plate shaker at 500 rpm for 5 seconds right side up and then upside down. A stop plate was placed on top of the blackview plate to keep it in the dark. • 6) Plates were incubated at room temperature for 30 min. • 7) After incubation, plates were counted in a 12 detector Packard Top Count on a program without dark delay.

T1 sequence (O95136 whole entry I205V/F273L): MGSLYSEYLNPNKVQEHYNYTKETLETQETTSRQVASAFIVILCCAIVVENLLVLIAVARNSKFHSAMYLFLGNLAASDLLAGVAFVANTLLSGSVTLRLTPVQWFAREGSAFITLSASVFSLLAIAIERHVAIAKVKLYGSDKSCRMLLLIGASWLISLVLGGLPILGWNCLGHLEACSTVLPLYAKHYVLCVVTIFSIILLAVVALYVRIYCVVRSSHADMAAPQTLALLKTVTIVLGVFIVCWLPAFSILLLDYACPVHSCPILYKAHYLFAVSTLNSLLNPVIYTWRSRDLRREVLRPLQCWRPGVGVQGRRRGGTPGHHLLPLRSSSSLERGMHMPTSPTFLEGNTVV
Chain of human EDG-3 (Homo sapiens, UniProt Q99500) (Q99500 whole entry): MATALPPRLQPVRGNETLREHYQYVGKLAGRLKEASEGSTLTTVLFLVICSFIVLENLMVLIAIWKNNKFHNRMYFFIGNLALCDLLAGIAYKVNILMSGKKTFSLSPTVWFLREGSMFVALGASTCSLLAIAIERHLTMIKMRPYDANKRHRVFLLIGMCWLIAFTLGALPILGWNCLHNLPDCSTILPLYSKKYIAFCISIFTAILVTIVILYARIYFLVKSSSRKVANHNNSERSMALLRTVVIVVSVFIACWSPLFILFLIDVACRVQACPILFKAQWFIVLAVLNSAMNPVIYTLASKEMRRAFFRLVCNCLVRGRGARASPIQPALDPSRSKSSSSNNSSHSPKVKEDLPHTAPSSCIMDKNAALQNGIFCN

Compound | IL-8 release (HL-60 cells) | NF-κB reporter response in pcDNA3-transfected cells [1] | SRE reporter response (human EDG-3 [2]) [fold] | induction of the NF-κB reporter gene compared to untreated controls (human EDG-3 [3]; Assay 3, pancreas EDG-3 clone, 3 μM) | NF-κB response (human EDG-3 [3]) | agonist character at EDG-4 (human EDG-4) | Rank (EMax) (human EDG-4) | EMax (Percent) (human EDG-4; relative efficacy) [%] | induction of NF-κB reporter (rat EDG-4; Assay 1, 24 hrs) | increase in luciferase activity (rat EDG-4; Assay 2, 3 μM) [fold] | Emax (human EDG-4; 293-EBNA, relative efficacy, read-out: EMax (Percent)) [%] | increase in luciferase activity (rat EDG-4; Assay 1, 1 μM S1P, 24 hrs) [fold] | increase in luciferase activity (rat EDG-4; Assay 1, 5 μM or 10 μM S1P, 24 hrs)
lysophosphatidic acid [LPA] | no such release | no response |  |  |  |  |  |  |  |  |  |  | 
CCCCCCCCCCCCC/C=C/[C@@H](O)[C@@H](N)COP(=O)([O-])OCC[N+](C)(C)C [SPC, sphingosylphosphorylcholine] |  | No response; also recorded: No such induction | 11 | about 8 fold | did not produce a NF-κB response | full agonists | 1 | 100 | induced the reporter gene | 4 |  |  | 
CCCCCCCCCCCCC/C=C/[C@@H](O)[C@@H](N)COP(=O)(O)O [S1P, sphingosine 1-phosphate] | no such release; also recorded: fail to produce IL-8 below the cytotoxic threshold | No increase in luciferase activity; also recorded: No response; also recorded: No such induction | 12 |  | did not produce a NF-κB response | full agonists | 2 |  |  | 3.5 | 86.7 | 2 | 4–4.5 fold
